Test results as given in ChEMBL document CHEMBL5143623, “Discovery of novel spiro compound as RAF kinase inhibitor with in vitro potency against KRAS mutant cancer” (Bioorg Med Chem Lett, 2022).
≈ marks a conversion by molar mass, not a printed value. Values belong to the molecule of their own block, whether it stands above or below them. Calls of active or inactive are those of the source. No cut-off for these calls is given here.

Assays:
[1] = biological target: RAF proto-oncogene serine/threonine-protein kinase (Homo sapiens, UniProt P04049); assay: Inhibition of human recombinant cRAF measured after 1 hr by TR-FRET assay
RAF proto-oncogene serine/threonine-protein kinase, sequence (P04049 whole entry): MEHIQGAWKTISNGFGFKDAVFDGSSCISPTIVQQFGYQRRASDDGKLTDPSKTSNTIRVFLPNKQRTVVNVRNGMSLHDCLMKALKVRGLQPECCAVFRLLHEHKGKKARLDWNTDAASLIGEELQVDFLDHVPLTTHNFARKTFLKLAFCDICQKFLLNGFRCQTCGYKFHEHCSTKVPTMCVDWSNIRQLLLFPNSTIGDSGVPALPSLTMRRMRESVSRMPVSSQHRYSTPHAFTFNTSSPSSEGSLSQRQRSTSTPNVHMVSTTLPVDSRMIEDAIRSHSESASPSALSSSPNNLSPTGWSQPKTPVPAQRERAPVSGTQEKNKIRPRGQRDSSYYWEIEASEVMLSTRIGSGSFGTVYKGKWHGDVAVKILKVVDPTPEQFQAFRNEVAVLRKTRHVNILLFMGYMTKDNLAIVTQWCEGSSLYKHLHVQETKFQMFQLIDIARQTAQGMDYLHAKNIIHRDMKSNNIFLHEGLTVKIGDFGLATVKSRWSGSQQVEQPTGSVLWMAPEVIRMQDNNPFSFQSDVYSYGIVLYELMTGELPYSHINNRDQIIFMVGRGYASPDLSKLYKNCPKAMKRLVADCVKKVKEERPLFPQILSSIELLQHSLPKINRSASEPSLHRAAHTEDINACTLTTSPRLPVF

NCI-H358 [2] = assay: Growth inhibition of human H358 cells expressing KRAS […] mutant measured after 3 days by Cell-titer Glo assay; type: functional; conditions: NCI-H358, 72 h, time 3 day
NCI-H358 [3] = assay: Effect on Erk signalling pathway in human H358 cells assessed as increase in Erk phosphorylation by HTRF assay; type: functional, cell-based
[4] = biological target: Serine/threonine-protein kinase B-raf (Homo sapiens, UniProt P15056); assay: Inhibition of human recombinant wild-type bRAF measured after 1 hr by TR-FRET assay
Serine/threonine-protein kinase B-raf (Homo sapiens, UniProt P15056), sequence (P15056 whole entry): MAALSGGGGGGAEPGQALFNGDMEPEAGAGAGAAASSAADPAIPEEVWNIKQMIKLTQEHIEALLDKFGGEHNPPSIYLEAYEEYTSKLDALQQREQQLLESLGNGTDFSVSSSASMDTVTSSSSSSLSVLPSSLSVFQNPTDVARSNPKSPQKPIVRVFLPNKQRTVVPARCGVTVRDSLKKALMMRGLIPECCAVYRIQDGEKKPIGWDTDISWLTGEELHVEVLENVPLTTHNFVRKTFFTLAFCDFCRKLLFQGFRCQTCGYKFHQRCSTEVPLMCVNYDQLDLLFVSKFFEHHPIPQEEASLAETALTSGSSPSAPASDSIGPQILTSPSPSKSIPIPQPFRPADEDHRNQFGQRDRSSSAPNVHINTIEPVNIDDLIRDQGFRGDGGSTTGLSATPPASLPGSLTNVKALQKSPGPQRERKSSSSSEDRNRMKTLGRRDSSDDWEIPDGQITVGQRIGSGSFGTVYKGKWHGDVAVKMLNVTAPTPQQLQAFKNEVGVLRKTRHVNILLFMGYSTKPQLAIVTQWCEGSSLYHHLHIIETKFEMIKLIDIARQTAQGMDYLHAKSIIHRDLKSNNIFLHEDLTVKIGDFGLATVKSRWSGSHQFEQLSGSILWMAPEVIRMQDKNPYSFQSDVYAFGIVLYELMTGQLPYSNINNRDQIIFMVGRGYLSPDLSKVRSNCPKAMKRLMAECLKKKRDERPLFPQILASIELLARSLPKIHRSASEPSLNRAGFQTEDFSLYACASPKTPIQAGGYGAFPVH

[5] = Clearance in rat at 1 mg/kg, iv by LC-MS/MS analysis; type: ADME, organism-based; conditions: in vivo
[6] = Permeability of compound by PAMPA assay; type: ADME; conditions: read-out: permeability
[7] = Hepatic clearance in rat liver microsomes; type: ADME, Microsome
[8] = MRT (0 to infinity) in mouse at 1 mg/kg, iv by LC-MS/MS analysis; type: ADME, organism-based; conditions: in vivo
Cytochrome P450 3A4 [9] = biological target: T1, Cytochrome P450 3A4 (Homo sapiens, UniProt P08684); assay: Inhibition of CYP3A4 in human liver microsomes using midazolam as substrate; design: species or system Microsome
T1 sequence (P08684 whole entry): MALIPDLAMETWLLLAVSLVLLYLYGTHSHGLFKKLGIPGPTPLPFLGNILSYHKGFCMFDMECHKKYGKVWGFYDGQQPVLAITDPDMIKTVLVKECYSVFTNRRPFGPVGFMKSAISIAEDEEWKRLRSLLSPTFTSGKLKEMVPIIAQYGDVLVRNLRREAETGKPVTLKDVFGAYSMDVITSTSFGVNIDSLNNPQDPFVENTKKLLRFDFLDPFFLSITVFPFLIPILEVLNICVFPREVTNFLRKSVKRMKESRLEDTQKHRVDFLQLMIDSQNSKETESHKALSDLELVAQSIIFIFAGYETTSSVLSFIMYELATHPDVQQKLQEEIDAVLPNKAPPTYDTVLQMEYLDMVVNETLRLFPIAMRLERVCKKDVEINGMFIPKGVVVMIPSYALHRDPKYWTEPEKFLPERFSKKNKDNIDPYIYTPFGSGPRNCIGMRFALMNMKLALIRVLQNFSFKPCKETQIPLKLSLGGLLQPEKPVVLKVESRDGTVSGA

[10] = Cmax in mouse at 2 mg/kg, po by LC-MS/MS analysis; type: ADME, organism-based; design: dose 2 mg/kg, route po; conditions: in vivo
Cytochrome P450 2D6 = Cytochrome P450 2D6 (Homo sapiens, UniProt P10635); assay: Inhibition of CYP2D6 in human liver microsomes; design: species or system Microsome
Cytochrome P450 2D6, sequence (P10635 whole entry): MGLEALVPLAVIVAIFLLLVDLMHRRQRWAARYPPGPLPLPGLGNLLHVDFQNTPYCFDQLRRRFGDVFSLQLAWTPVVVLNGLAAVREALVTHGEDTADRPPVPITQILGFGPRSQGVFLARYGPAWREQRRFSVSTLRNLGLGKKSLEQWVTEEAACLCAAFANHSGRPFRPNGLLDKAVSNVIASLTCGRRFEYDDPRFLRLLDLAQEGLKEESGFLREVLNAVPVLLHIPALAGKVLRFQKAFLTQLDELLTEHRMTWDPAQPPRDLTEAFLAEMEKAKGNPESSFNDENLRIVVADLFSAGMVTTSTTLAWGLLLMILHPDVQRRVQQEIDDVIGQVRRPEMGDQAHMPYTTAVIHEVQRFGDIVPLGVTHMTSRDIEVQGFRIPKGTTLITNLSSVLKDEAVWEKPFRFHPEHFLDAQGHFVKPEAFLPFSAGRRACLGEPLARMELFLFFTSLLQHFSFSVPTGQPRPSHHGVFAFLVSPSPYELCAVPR

[11] = AUC(0 to t) in rat at 2 mg/kg, po by LC-MS/MS analysis; type: ADME, organism-based; design: dose 2 mg/kg, route po; conditions: in vivo
[12] = Solubility of compound in PBS at pH 7.4; type: physicochemical
[13] = Half life in rat at 1 mg/kg, iv by LC-MS/MS analysis; type: ADME, organism-based; conditions: in vivo
[14] = Tmax in rat at 2 mg/kg, po by LC-MS/MS analysis; type: ADME, organism-based; conditions: in vivo
[15] = Stability of compound in Dog liver microsomes assessed as half life; type: ADME, Canis lupus familiaris, Microsome
[16] = biological target: Serine/threonine-protein kinase B-raf (Homo sapiens, UniProt P15056, V600E); assay: Inhibition of human recombinant bRAF […] mutant measured after 1 hr by TR-FRET assay
[17] = Stability of compound in rat liver microsomes assessed as half life; type: ADME, Microsome
[18] = Hepatic clearance in dog liver microsomes; type: ADME, Canis lupus familiaris, Microsome
[19] = Stability of compound in human liver microsomes assessed as half life; type: ADME, Microsome
[20] = Volume of distribution in rat at 1 mg/kg, iv by LC-MS/MS analysis; type: ADME, organism-based; conditions: in vivo
A-375 = assay: Growth inhibition of human A375 cells expressing bRaf V600E mutant measured after 3 days by Cell-titer Glo assay; type: functional; conditions: A-375, 72 h, time 3 day
[21] = Hepatic clearance in human liver microsomes; type: ADME, Microsome
[22] = Half life in rat at 2 mg/kg, po by LC-MS/MS analysis; type: ADME, organism-based; conditions: in vivo
[23] = Oral bioavailability in mouse at 2 mg/kg by LC-MS/MS analysis; type: ADME, organism-based; conditions: in vivo
[24] = Half life in mouse at 2 mg/kg, po by LC-MS/MS analysis; type: ADME, organism-based; conditions: in vivo
[25] = AUC(0 to t) in mouse at 2 mg/kg, po by LC-MS/MS analysis; type: ADME, organism-based; design: dose 2 mg/kg, route po; conditions: in vivo
[26] = MRT (0 to infinity) in rat at 1 mg/kg, iv by LC-MS/MS analysis; type: ADME, organism-based; conditions: in vivo
Cytochrome P450 1A2 = biological target: T2, Cytochrome P450 1A2 (Homo sapiens, UniProt P05177); assay: Inhibition of CYP1A2 in human liver microsomes; type: ADME, Microsome
T2 sequence (P05177 whole entry): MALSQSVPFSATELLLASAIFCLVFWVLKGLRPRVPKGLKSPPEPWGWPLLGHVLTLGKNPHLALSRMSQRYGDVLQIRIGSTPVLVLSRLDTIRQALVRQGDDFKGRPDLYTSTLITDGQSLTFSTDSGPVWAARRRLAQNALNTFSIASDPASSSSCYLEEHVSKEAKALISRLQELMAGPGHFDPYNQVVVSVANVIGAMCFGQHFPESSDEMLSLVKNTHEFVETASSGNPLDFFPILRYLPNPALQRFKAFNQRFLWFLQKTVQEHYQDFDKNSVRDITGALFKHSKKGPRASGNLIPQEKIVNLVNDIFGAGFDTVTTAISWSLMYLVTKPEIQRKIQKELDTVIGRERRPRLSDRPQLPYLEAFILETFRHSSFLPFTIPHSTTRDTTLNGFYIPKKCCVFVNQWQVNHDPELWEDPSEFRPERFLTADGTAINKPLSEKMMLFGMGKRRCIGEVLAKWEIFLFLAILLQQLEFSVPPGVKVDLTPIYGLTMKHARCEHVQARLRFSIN

Calu-6 = assay: Growth inhibition of human Calu-6 cells expressing KRAS Q61K mutant measured after 3 days by Cell-titer Glo assay; type: functional; conditions: Calu-6, 72 h, time 3 day
[27] = Half life in mouse at 1 mg/kg, iv by LC-MS/MS analysis; type: ADME, organism-based; conditions: in vivo
[28] = Hepatic clearance in mouse liver microsomes; type: ADME, Microsome
[29] = biological target: Voltage-gated inwardly rectifying potassium channel KCNH2 (Homo sapiens, UniProt Q12809); assay: Inhibition of hERG; type: toxicity
Voltage-gated inwardly rectifying potassium channel KCNH2, sequence (Q12809 whole entry): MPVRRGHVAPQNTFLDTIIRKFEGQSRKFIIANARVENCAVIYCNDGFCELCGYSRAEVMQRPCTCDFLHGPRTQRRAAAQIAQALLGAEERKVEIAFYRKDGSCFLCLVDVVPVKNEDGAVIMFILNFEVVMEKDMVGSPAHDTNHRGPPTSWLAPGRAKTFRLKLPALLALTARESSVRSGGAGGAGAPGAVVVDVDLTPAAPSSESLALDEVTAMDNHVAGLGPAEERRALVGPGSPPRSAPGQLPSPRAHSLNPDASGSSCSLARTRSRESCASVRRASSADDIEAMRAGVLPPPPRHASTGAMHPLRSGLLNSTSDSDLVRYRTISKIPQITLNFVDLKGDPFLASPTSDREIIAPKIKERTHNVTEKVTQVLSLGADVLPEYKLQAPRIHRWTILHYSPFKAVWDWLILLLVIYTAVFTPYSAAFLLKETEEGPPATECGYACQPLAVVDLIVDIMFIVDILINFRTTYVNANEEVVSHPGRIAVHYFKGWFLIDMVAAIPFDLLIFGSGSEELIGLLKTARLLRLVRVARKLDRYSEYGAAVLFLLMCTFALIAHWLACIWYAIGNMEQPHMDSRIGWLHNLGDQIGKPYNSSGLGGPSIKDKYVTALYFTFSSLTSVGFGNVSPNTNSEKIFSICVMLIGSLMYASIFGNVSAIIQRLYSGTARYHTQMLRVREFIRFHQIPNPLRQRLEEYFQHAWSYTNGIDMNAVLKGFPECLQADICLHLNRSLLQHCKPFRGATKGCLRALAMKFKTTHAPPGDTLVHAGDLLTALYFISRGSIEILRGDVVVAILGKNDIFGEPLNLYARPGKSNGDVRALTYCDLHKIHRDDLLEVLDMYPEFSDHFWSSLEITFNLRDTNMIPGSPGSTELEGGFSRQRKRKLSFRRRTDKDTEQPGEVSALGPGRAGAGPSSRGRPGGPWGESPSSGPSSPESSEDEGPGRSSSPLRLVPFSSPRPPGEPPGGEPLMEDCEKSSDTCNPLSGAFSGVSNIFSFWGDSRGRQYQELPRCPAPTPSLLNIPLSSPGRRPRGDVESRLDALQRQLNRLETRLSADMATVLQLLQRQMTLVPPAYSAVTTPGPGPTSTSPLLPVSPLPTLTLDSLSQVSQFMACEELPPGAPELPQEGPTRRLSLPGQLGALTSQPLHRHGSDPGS

[30] = MRT (0 to infinity) in mouse at 2 mg/kg, po by LC-MS/MS analysis; type: ADME, organism-based; conditions: in vivo
[31] = Cmax in rat at 2 mg/kg, po by LC-MS/MS analysis; type: ADME, organism-based; design: dose 2 mg/kg, route po; conditions: in vivo
Cytochrome P450 2C9 = Cytochrome P450 2C9 (Homo sapiens, UniProt P11712); assay: Inhibition of CYP2C9 in human liver microsomes; type: ADME, Microsome
Cytochrome P450 2C9, sequence (P11712 whole entry): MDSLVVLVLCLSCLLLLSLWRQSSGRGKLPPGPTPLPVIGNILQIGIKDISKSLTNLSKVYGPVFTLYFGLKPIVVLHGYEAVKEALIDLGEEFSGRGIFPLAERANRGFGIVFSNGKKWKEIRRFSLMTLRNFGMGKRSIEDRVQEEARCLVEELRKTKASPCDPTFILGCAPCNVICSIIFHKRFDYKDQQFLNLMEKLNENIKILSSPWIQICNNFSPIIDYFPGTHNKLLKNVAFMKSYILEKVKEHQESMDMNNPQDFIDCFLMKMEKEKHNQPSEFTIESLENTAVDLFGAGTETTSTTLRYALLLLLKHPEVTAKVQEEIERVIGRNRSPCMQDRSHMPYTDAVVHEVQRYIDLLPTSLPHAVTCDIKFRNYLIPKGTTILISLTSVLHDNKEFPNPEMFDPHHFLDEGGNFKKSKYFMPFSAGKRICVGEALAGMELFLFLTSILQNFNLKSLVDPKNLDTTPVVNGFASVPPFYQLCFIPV

[32] = MRT (0 to infinity) in rat at 2 mg/kg, po by LC-MS/MS analysis; type: ADME, organism-based; conditions: in vivo
[33] = Oral bioavailability in rat at 2 mg/kg by LC-MS/MS analysis; type: ADME, organism-based; conditions: in vivo
[34] = AUC(0 to t) in mouse at 1 mg/kg, iv by LC-MS/MS analysis; type: ADME, organism-based; design: dose 1 mg/kg, route iv; conditions: in vivo
Cytochrome P450 2C19 = Cytochrome P450 2C19 (Homo sapiens, UniProt P33261); assay: Inhibition of CYP2C19 in human liver microsomes; type: ADME, Microsome
Cytochrome P450 2C19, sequence (P33261 whole entry): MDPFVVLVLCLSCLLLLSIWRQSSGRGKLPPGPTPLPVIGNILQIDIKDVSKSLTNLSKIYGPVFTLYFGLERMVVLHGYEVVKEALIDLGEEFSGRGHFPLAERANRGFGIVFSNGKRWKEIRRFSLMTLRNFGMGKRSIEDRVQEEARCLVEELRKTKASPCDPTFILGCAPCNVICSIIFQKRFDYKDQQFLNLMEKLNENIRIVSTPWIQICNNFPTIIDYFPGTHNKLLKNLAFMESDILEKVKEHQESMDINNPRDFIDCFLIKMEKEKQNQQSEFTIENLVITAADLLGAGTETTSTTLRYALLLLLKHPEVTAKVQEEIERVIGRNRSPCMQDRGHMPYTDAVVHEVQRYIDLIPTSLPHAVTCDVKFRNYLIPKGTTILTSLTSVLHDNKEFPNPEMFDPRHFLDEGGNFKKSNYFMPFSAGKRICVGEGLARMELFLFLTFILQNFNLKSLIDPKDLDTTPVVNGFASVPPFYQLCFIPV

[35] = Tmax in mouse at 2 mg/kg, po by LC-MS/MS analysis; type: ADME, organism-based; conditions: in vivo
[36] = Clearance in mouse at 1 mg/kg, iv by LC-MS/MS analysis; type: ADME, organism-based; conditions: in vivo
[37] = Volume of distribution in mouse at 1 mg/kg, iv by LC-MS/MS analysis; type: ADME, organism-based; conditions: in vivo
[38] = Stability of compound in mouse liver microsomes assessed as half life; type: ADME, Microsome
[39] = AUC(0 to t) in rat at 1 mg/kg, iv by LC-MS/MS analysis; type: ADME, organism-based; design: dose 1 mg/kg, route iv; conditions: in vivo
Cytochrome P450 3A4 [40] = biological target: T1, Cytochrome P450 3A4; assay: Inhibition of CYP3A4 in human liver microsomes using testosterone as substrate; design: species or system Microsome

IC50 [1]: 0.029 µM
GI50 (NCI-H358 [2]): 14 µM
Compound: Cc1ccc(NC(=O)c2ccnc(C(F)(F)F)c2)cc1-c1ccc2c(c1)OC1(CCOCC1)CC2NCCO (centres undefined)

IC50 [1]: 0.019 µM
GI50 (NCI-H358 [2]): 9.1 µM
Compound: Cc1ccc(NC(=O)c2ccnc(C(F)(F)F)c2)cc1-c1ccc2c(c1)OC1(CCOCC1)CC2O (centres undefined)

IC50 [1]: 0.062 µM
GI50 (NCI-H358 [2]): 10 µM
Compound: Cc1ccc(NC(=O)c2ccnc(C(F)(F)F)c2)cc1-c1ccc2c(c1)OC1(COC1)NC2=O

IC50 [1]: 0.007 µM
GI50 (NCI-H358 [2]): 5.6 µM
Compound: Cc1ccc(NC(=O)c2ccnc(C(F)(F)F)c2)cc1-c1ccc2c(c1)OC1(CCSCC1)NC2=O

GI50 (NCI-H358 [2]): 3 µM
Compound: Cc1ccc(NC(=O)c2ccnc(C(F)(F)F)c2)cc1-c1cc(OCCO)nc(N2CCOCC2)c1 [NAPORAFENIB]
Activity (NCI-H358 [3]): Active

IC50 [4]: 0.036 µM
clearance [5]: 15 mL/min/kg
Papp [6]: < 0.018 ×10⁻⁶ cm/s
CLH [7]: 32.7 µL/min/g
MRT inf [8]: 1.74 h
IC50 (Cytochrome P450 3A4 [9]): > 30 µM
Cmax [10]: 1.48 ng/mL
IC50 (Cytochrome P450 2D6): > 30 µM
AUC(0-t) [11]: 517 ng·h/mL
solubility [12]: 0.7 µM (≈ 0.348 µg/mL)
half-life [13]: 4.39 h
Tmax [14]: 4 h
half-life [15]: > 2.32 h
IC50 [16]: 0.0294 µM
half-life [17]: 0.783 h
CLH [18]: < 9.6 µL/min/g
half-life [19]: 0.485 h
Vd [20]: 5.59 L/kg
GI50 (A-375): 2.9 µM
CLH [21]: 13.7 µL/min/g
half-life [22]: 4.57 h
bioavailability [23]: 40%
t1/2 [24]: 1.91 h
AUCt [25]: 546 ng·h/mL
MRT inf [26]: 4.35 h
IC50 (Cytochrome P450 1A2): > 30 µM
GI50 (Calu-6): 3.9 µM
half-life [27]: 2.81 h
CLH [28]: 45 µL/min/g
MRT inf [30]: 3.59 h
Cmax [31]: 52.1 ng/mL
IC50 (Cytochrome P450 2C9): > 30 µM
MRT inf [32]: 8.14 h
bioavailability [33]: 24%
IC50 [1]: 0.0038 µM
AUC(0-t) [34]: 688 ng·h/mL
IC50 (Cytochrome P450 2C19): > 30 µM
Tmax [35]: 1 h
clearance [36]: 24.2 mL/min/kg
GI50 (NCI-H358 [2]): 3.4 µM
Vd [37]: 5.87 L/kg
half-life [38]: 1.02 h
AUC(0-t) [39]: 1120 ng·h/mL
IC50 (Cytochrome P450 3A4 [40]): > 30 µM
Compound: Cc1ccc(NC(=O)c2ccnc(C(F)(F)F)c2)cc1-c1ccc2c(c1)OC1(CCOCC1)NC2=O
IC50 [29]: 5.9 µM
Activity (NCI-H358 [3]): Active

IC50 [1]: 0.005 µM
GI50 (NCI-H358 [2]): 7.3 µM
Compound: Cc1ccc(NC(=O)c2ccnc(C(F)(F)F)c2)cc1-c1ccc2c(c1)OC1(CCS(=O)(=O)CC1)NC2=O

IC50 [1]: 0.036 µM
GI50 (NCI-H358 [2]): 13 µM
Compound: Cc1ccc(NC(=O)c2ccnc(C(F)(F)F)c2)cc1-c1ccc2c(c1)OC1(CCOCC1)CC2

IC50 [1]: 0.019 µM
GI50 (NCI-H358 [2]): 15 µM
Compound: Cc1ccc(NC(=O)c2ccnc(C(F)(F)F)c2)cc1-c1ccc2c(c1)OC1(CCNCC1)NC2=O

IC50 [1]: 0.055 µM
GI50 (NCI-H358 [2]): 8.9 µM
Compound: Cc1ccc(NC(=O)c2ccnc(C(F)(F)F)c2)cc1-c1ccc2c(c1)N(O)C1(CCOCC1)NC2=O
